Here are results for 7 compounds from ChEMBL document CHEMBL4316589, “Attachment of a 5-nitrofuroyl moiety to spirocyclic piperidines produces non-toxic nitrofurans that are efficacious in vitro against multidrug-resistant Mycobacterium tuberculosis” (Eur J Med Chem, 2019).

In brackets after ≈: the same amount, converted by molar mass.

Holding throughout (assay type): functional
For assay [1], the system named is Mycobacterium tuberculosis. The assay is described as follows: Antimycobacterial activity against patient-derived multidrug-resistant Mycobacterium tuberculosis 7106 measured after 7 days by resazurin dye-based assay. The conditions noted are these: Mycobacterium tuberculosis, 7106, 168 h. (Resazurin is reduced to fluorescent resorufin, in cell work by metabolically active cells.)

The subject of assay [2] is Mycobacterium tuberculosis. Description: Antimycobacterial activity against patient-derived multidrug-resistant Mycobacterium tuberculosis 2712 measured after 7 days by resazurin dye-based assay. The conditions noted are these: Mycobacterium tuberculosis, 2712, 168 h.
In assay [3] the test system is Mycobacterium tuberculosis. Description: Antimycobacterial activity against patient-derived multidrug-resistant Mycobacterium tuberculosis 5023 measured after 7 days by resazurin dye-based assay. Particulars: Mycobacterium tuberculosis, 5023, 168 h.

As to `COc1ccc(CC2CCOC3(CCN(C(=O)c4ccc([N+](=O)[O-])o4)CC3)C2)cc1` (stereo unspecified), the figures for the minimal inhibitory concentration (MIC) in assay [1], in assay [2] and in assay [3] were 3.1 µg/mL (≈ 7.48 µM), 6.2 µg/mL (≈ 15 µM) and 3.1 µg/mL (≈ 7.48 µM), respectively.
For the compound `O=C(c1ccc([N+](=O)[O-])o1)N1CCC2(CC1)CC(Cc1nc(-c3cccnc3)no1)CCO2` (stereo unspecified), the minimum inhibitory concentration (MIC) (commonly the lowest concentration that inhibits growth of the organism) in assay [1] worked out at 6.2 µg/mL (≈ 13.7 µM); in assay [2], 1.6 µg/mL (≈ 3.53 µM); in assay [3] it was 3.1 µg/mL (≈ 6.84 µM).
In the same order, the values of `O=C(c1ccc([N+](=O)[O-])o1)N1CCC2(CCCCO2)CC1` are 25 µg/mL (≈ 84.9 µM), 6.2 µg/mL (≈ 21.1 µM) and 25 µg/mL (≈ 84.9 µM).
For the compound `COCCc1noc(CC2CCOC3(CCN(C(=O)c4ccc([N+](=O)[O-])o4)CC3)C2)n1` (stereo unspecified), the MIC in assay [1] was 25 µg/mL (≈ 57.5 µM); in assay [2], 12.5 µg/mL (≈ 28.8 µM); in assay [3], 12.5 µg/mL (≈ 28.8 µM).
On to `O=C(c1ccc([N+](=O)[O-])o1)N1CCC2(CC1)CC(OCc1ccc(F)cc1)CCO2` (stereo unspecified), for which the MIC in assay [1] was 6.2 µg/mL (≈ 14.8 µM); in assay [2], 25 µg/mL (≈ 59.7 µM); in assay [3] it was 6.2 µg/mL (≈ 14.8 µM).
For the compound `O=C(c1ccc([N+](=O)[O-])o1)N1CCC2(CC1)CC(Cc1nc(C3CC3)no1)CCO2` (stereo unspecified), the figures for the MIC in assay [1], in assay [2] and in assay [3] were 6.2 µg/mL (≈ 14.9 µM), 3.1 µg/mL (≈ 7.44 µM) and 12.5 µg/mL (≈ 30 µM), respectively.
For `Cc1ccc(CC2CCOC3(CCN(C(=O)c4ccc([N+](=O)[O-])o4)CC3)C2)cc1` (stereo unspecified) the same measures were 100 µg/mL (≈ 251 µM), 100 µg/mL (≈ 251 µM) and 3.1 µg/mL (≈ 7.78 µM).
